Reference: patent US7868011B2 (General Atomics, priority 2003, dated 2011)

Experiments:
[1] = test system: lupus-prone MRL-Fas^lpr mice; test: survival of lupus-prone MRL-Fas lpr mice; type: in vivo, mouse; details: 50 mg/kg/day i.p.
Procedure: MRL-Fas^lpr female mice were provided by The Jackson Laboratory (Bar Harbor, Me.). The mice were housed in specific pathogen-free (SPF) conditions with room temperature of 24±2° C., 12 hr light/dark cycle, and provided with sterile food and water ad libitum. Starting at approximately 6 weeks of age, MRL-Fas^lpr mice (n=11-13/group) were dosed i.p. every day with either DZ2002 (50 mg/kg/day) or with vehicle (0.4% DMSO/PBS) for ˜9 months and followed for survival. Mouse survival data were analyzed by the Kaplan-Meir method with comparison by the log-rank test; p<0.05 was considered to be significant.

[2] = test system: primary antibody production in response to SRBC; test: Quantitative hemolysis of sheep red blood cells (QHS) assay; type: in vivo, Balb/c mice; details: 7-day intraperitoneal injection
Procedure: Female Babl/c mice were immunized by intraperitoneal injection with 0.2 ml of 16.7% of SRBC on day 4. Vehicle, Dexamethasone and DZ2002 were administrated on each group (n=6) by intraperitoneal injection on 7 consecutive days of 1-7. On day 8, mice were sacrificed and made a mixed suspension of spleen cells of 2×10^6 cells/ml. 1 ml of cell suspension was incubated with 1 ml of 0.5% SRBC and 1 ml of 1:10 dilution of guinea pig complement for 1 h at 37° C., then centrifuged (3 min, 3000 g) and determined the supernatant hemolysis at 413 nm, according to Simpson et al., J. Immunol. Methods., 21(1-2):159-65. (1978) with some modifications. Each group was triplicated.

[3] = test system: Mouse splenic lymphocytes; test: MTT cytotoxicity assay of the splenic lymphocytes; type: cell-based; details: 0.1-10 μmol/L, two days of culture
Procedure: Cytotoxicity was assessed with MTT assay. Mouse splenic lymphocytes were incubated in a 96-well plate at 9×10^4 cells/180 μl/well in a humidified CO2 incubator at 37° C. for 48 hours in the presence or absence of various concentrations of DZ2002. Fifteen (15) μl of 5 mg/ml of MTT was pulsed 4 h prior to end of the culture […], and then 80 μl solvent (10% SDS, 50% N,N-dimethy formamide, PH7.2) was added. Incubate for 7 h and read OD590 at a microplate reader (Bio-rad Model 550 Japan).

[4] = test system: TG induced peritoneal macrophages; test: cytokine production from TG induced peritoneal macrophages (ELISA); type: cell-based, BALB/C mice; details: IFN-γ and LPS 24 h, 0.1-10 μmol/L
Procedure: Peritoneal exudate cells were induced in BALB/C mice by an intraperitoneal injection of 0.5 ml of 3% TG. After 4 days, the peritoneal exudates cells were harvested by sterile lavage.
Murine peritoneal exudate cells (6.25×10^5) were cultured in 24-well plates in a volume of 1 ml/well for 2 hours. In adherent cells were washed by ice cold RPMI 1640 and adherent cells were culture in a volume of 2 ml/well in the presence of IFN-γ (2.5 ng/ml) and LPS (1 μg/ml) in the presence or absence of various concentrations of DZ2002. After 24 h, cell-free supernatant was collected and frozen at −20° C. The concentrations of IL-12p40, IL-12p70, IL-10 and TNF-α were determined by ELISA.
Cytokines produced by peritoneal macrophages were assessed following a 24-h incubation with IFN-γ at 25 U/ml and LPS at 1 μg/ml. Resident peritoneal cells produce low levers of cytokines except for some IL-10 with incubated with IFN-γ and LPS (data not shown). As for TG induced peritoneal macrophages, DZ2002 inhibited IL-12P40 and TNF-α release, but have no effect on IL-10 production in the dose of 0.1-10 μmol/L (FIG. 5).

[5] = test system: C57BL/6 spleen cells stimulated by mitomycin-treated Balb/c spleen cells; test: Mixed lymphocyte reaction (MLR) proliferation assay; type: cell-based, mouse; details: 3-day culture
Procedure: Balb/c mouse spleen cells were prepared in 10^7 cells/ml suspension, cultured 2 h with 50 μg/ml of mitomycin. Then cells were washed and cultured together with fresh C57/B6 mice splenocytes equally in a final concentration of 1.0×10^6 cells/ml in the presence or absence of various concentrations of DZ2002. After 48 hour incubation, cells were pulsed with 0.5 μCi/well of [^3H]-thymidine and cultured for another 24 hours. The cells were then harvested onto glass fiber filters and the incorporated radioactivity was counted using a Beta Scintillator (MicroBeta Trilux, PerkinElmer Life Sciences).

SAH hydrolase = SAH hydrolase (Rattus norvegicus, UniProt P10760); details: cited from earlier work
[6] = target: intracellular AdoHcy hydrolase (Rattus norvegicus, UniProt P10760); details: intracellular enzyme; cited from earlier work
Chain of intracellular AdoHcy hydrolase (P10760 whole entry): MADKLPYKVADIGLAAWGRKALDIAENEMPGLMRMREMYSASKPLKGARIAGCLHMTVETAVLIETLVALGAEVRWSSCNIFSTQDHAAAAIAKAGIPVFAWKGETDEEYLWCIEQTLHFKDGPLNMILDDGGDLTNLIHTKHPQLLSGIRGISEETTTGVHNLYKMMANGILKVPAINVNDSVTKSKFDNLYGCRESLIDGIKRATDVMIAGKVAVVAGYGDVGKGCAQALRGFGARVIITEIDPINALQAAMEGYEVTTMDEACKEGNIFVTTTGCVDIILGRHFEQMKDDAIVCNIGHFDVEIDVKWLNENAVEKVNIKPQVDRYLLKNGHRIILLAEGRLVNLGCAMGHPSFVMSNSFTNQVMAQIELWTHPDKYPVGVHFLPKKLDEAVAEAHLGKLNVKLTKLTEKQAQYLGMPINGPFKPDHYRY

Chain of SAH hydrolase (P10760 whole entry): as above

COC(=O)C(O)CCn1cnc2c(N)ncnc21 (stereo not drawn) [DZ2002, Methyl 4-(Adenin-9-yl)-2-hydroxybutanoate]
age at which extension in survival was first observed [1]: approximately 160 days of age
inhibition of QHS ([2]; 0.08 mg/kg): 24.5%
inhibition of QHS ([2]; 2 mg/kg): 18.4%
cytotoxicity to spleen cells (MTT, OD) [3]: no cytotoxicity
IL-10 production [4]: no effect
suppression of MLR ([5]; 0.1 μmol/L): 40.2%
suppression of MLR ([5]; 1 μmol/L): 36.9%
suppression of MLR ([5]; 10 μmol/L): 42.3%

C[C@@H]1C[C@H]2[C@@H]3CCC4=CC(=O)C=C[C@]4(C)[C@@]3(F)[C@@H](O)C[C@]2(C)[C@@]1(O)C(=O)CO [Dethamethasone, reference compound]
inhibition of QHS ([2]; 5 mg/kg): 38.1%

Nc1ncnc2c1ncn2C[C@H](O)CO [(S)-DHPA, (S)-9-(2,3-dihydroxypropyl)adenine]
type of inhibition of isolated AdoHcy hydrolase (SAH hydrolase; isolated enzyme): reversible inhibitor
Ki (SAH hydrolase; read-out: Ki value against SAH hydrolase): 3.5 µM
type of inhibition of intracellular AdoHcy hydrolase [6]: irreversible inhibitor
